The test system of the experiment is non-ovariectomised animals. The experiment is described as follows: Wet weight of femurs, non-ovariectomised rats. Type of experiment: in vivo, rat. The note with it: oral feeding of GlcNBu, 6 months. The procedure:
Sixteen ovariectomised rats (Charles River Laboratories), approximately 200 g in weight, were randomized into two groups. The control group received 200 mg of glucose, by mouth as single daily doses and the GlcNBu-treated group received 200 mg of GlcNBu by mouth, as single daily doses, for a total period of six (6) months. A similar group of non-ovariectomised animals was fed with GlcNBu or glucose at the same doses. The feeding of the compounds was done in small amounts of peanut butter which was very acceptable to the rats, which were allowed free access to water and rat chow. The animals had the BMDs of the femurs (total or global BMD) and the lumbar spines were estimated at baseline and then at, approximately 2, 4 and 6 months. Consistent position of the femurs was assured with a pre-determined grid. A Hologic 4500 DXA machine, with small animal software, was employed for the study. The animals were lightly anesthetized for each measurement.
At the end of the experiment, the animals were sacrificed, plasma was collected by cardiac puncture, and the femurs removed, fully dissected from adherent tissue and the wet weight was determined. The concentrations of Insulin-like Growth factor I (IGF-1) in the plasma, obtained at the end of the experiment, were determined by a commercial immunological method.

This passage reports femoral wet weight results from patent US20060046976A1, “Method for increasing the bone mineral density and bone micro-architecture or connectivity of a mammal using N-acylated glucosamines” (priority 2004, published 2006).

With `CCCC(=O)N[C@H]1C(O)O[C@H](CO)[C@@H](O)[C@@H]1O` (stereo partly drawn) [GlcNBu, N-butyryl-D-glucosamine], the femoral wet weight entry is listed as “increases femoral wet weight”.
